One test has as its target human PDHK2 (12-407) (Homo sapiens (Human), UniProt Q15119). The test can be described thus: Isothermal titration calorimetry (ITC) binding. Particulars: 30° C., pH 7.5. As for the experimental part: Isothermal Titration Calorimetry
ITC measurements were performed with a VP-ITC micro calorimeter (Microcal, LLC/GE Healthcare Bio-Sciences AB, Uppsala, Sweden). In general titrations were performed by titrating the protein (50 μM) to the test compound (5 μM) in 12 μl injections. All binding experiments were carried out at 30° C. In general the test compounds were diluted form DMSO stock solutions into the measurement buffer with a maximum final concentration of 1% DMSO. The measurement buffer was 20 mM HEPES, 135 mM KCl, 1 mM TCEP, 2 mM MgCl2, 15 mM NaH2PO4, pH 7.5. The human PDHK2 (12-407) was produced in E. coli as his-tagged protein and purified by affinity chromatography. The tag was removed by side specific proteolysis. Before titration the protein buffer was changed to the measurement buffer containing the same DMSO concentration as the test compound dilution. ITC data analysis was performed using Origin 7 calorimetry software from the same supplier. For most measurements a binding model of one binding site was assumed. According to the applied mathematical model it is possible to calculate the binding constant (KA), the observed binding enthalpy (ΔH^obs) as well as the stoichiometry (N) of the formed complex. Preceding analysis the raw data was corrected for the heats of dilution by extrapolating from the saturation value from the end of titration. In order to allow for direct comparison between the respective experimental series and protein preparations the protein concentration was corrected by referencing titrations to a well behaved standard inhibitor. The apparent stoichiometry values defined the fraction of binding competent protein and compensated for relative errors in protein concentration measurements. This corrected protein concentration was used to set up ITC experiment series with test compounds. Any deviations from ideal 1:1 stoichiometry observed here were attributed to errors in compound concentration. This nominal compound concentration was corrected as well to achieve 1:1 stoichiometry in the fit.
(In general: In ITC the heat of successive injections is recorded.)

Test [1] concerns PDH-E1alpha (pSer300) in HEK293T cells. The test is described as follows: Cellular immunofluorescence assay, PDH-E1alpha (pSer300). The test is classed as cell-based. Particulars: Homo sapiens, HEK-293T, 5 hours incubation, read-out: IC50 (cell data). As for the experimental part: Cellular Assay for Determination of Compound Activities
Compound activities were determined in a cellular immunofluorescence assay. Human HEK293T cells were seeded into black 384-well plates with clear bottom and grown overnight.
Next day, test compounds were added to the wells and the plates incubated for 5 hours. Following this, cells were fixed with formaldehyde, permeabilised and blocked. The primary antibody, Anti-PDH-E1alpha (pSer300), AP1064 (Merck Millipore) was added and incubated overnight in the plate wells. Next, cells were washed and the seconday antibody, Alexa Fluor 488, goat anti-rabbit ab (A-11008, Invitrogen) was added together with Hoechst 33258 (H3569, Invitrogen) and incubated for 1 hour in the plate wells. Finally, cells were washed and the plates were measured on the laser scanning cytometer acumen hci (TTpLabtech).
The raw data were normalized against a pharmacological inhibitor control and dose response curves were generated by plotting the percent effect values using the software package Genedata screener (Genedata).

A further test has as its target PDHK2 (Homo sapiens (Human), UniProt Q15119). The test is described as follows: Biochemical activity testing of PDHK2: PDC inactivation assay. Particulars: human rec PDHK2, PDC from porcine heart, ATP 5 μM; read-out: IC50 PDHK2 (enzyme assay). An excerpt:
Biochemical Activity Testing of PDHK2: PDC Inactivation Assay
The biochemical activity assay for PDHK2 is based on the inactivation of PDC through phosphorylation by PDHK2. The assay is run in two steps: the enzymatic PDHK2 reaction in which isolated PDC is phosphorylated by PDHK2 with ATP as co-substrate and the PDC activity assay in which pyruvate and NAD are converted to acetyl-CoA and NADH. The PDC activity correlates to the increase in NADH and thereby is detectable directly via the increasing fluorescence signal (Exc 340 nm, Em 450 nm). Inhibition of PDHK2 results in a lower phosphorylation status and thereby a less decrease in activity of PDC and a stronger increase in NADH fluorescence signal.
The PDC inactivation assay is performed in Greiner 384-well microtiter plates and is used for high throughput screen. 4 μl of PDHK2 (human, rec, Carna Bioscience, 10 ng/μl-137 nM final concentration) and PDC (isolated from porcine heart, Sigma-Aldrich, 20 mU/ml final concentration) are incubated in the absence or presence of the test compound (10 dilution concentrations) for 30 min at room temperature in kinase buffer (15 mM potassium phosphate buffer, pH 7.0, 60 mM KCl, 1.5 mM DTT, 2.5 mM MgCl2, 0.0125% (w/v) BSA, 0.125% Pluronic F-68). The kinase reaction is started by the addition of 4 μl ATP substrate solution (fc 5 μM in kinase buffer). After 30 min incubation at 37° C. 40 μl of PDC reaction solution (100 mM Tris/HCl, pH 7.8, 0.5 mM EDTA, 1 mM MgCl2, 50 mM NaF, 0.25 mM Coenzyme A, 5 mM pyruvate, 1 mM NAD, 5 mM DTT, 1 mM thiamine pyrophosphate) is added. The first fluorescence measurement is performed on a Perkin Elmer Envision (Exc 340 nm, Em 450 nm). The reaction is incubated for 45 min at room temperature. Afterwards a second fluorescence measurement is performed and the PDC activity is calculated by the difference between both measurements. As full value for the PDHK2 assay the inhibitor-free PDHK2 reaction is used. The pharmacological zero value used is DCA (Sigma-Aldrich) in a final concentration of 3 mM. The inhibitory values (IC50) were determined using either the program Symyx Assay Explorer® or Condosseo® from GeneData.

Broadly, the pKd is −log10 of the Kd, conventionally taken in molar units. Low readings indicate a large Kd, high ones a small Kd. As usually defined, the pIC50 is the IC50 on a negative log10 scale, so that one unit is a factor of ten.

pIC50, pKd: −log10 of the molar value. Where only a bound is given, the exact number is not on record here.

For the compound `C[C@@H]1CN(C(=O)[C@@](C)(O)C(F)(F)F)CC[C@@H]1C1(c2nnc(-c3ccc(Cl)cc3)o2)CC1` [Compound A37, (R)-1-((3S,4S)-4-{1-[5-(4-Chloro-phenyl)-[1,3,4]oxadiazol-2-yl]-cyclopropyl}-3-methyl-piperidin-1-yl)-3,3,3-trifluoro-2-hydroxy-2-methyl-propan-1-one], the pKd on human PDHK2 (12-407) was 8.62. The pIC50 is 7.60 in test [1] and 6.89 at PDHK2.

For the compound `CC(C)(c1nnc(C2CCCCC2)o1)C1CCN(C(=O)[C@@](C)(O)C(F)(F)F)CC1` [Compound A10, (R)-1-{4-[1-(5-Cyclohexyl-[1,3,4]oxadiazol-2-yl)-1-methyl-ethyl]-piperidin-1-yl}-3,3,3-trifluoro-2-hydroxy-2-methyl-propan-1-one], the pKd at human PDHK2 (12-407) was 6.92. For the same compound, the pIC50 in test [1] is 5.70; on PDHK2 it was 6.40.

With `COc1ccc(-c2nnc(C3([C@H]4CCN(C(=O)[C@@](C)(O)C(F)(F)F)C[C@H]4C)CC3)[nH]2)cn1` [Compound A40, (R)-3,3,3-Trifluoro-2-hydroxy-1-((3S,4S)-4-{1-[5-(6-methoxy-pyridin-3-yl)-4H-[1,2,4]triazol-3-yl]-cyclopropyl}-3-methyl-piperidin-1-yl)-2-methyl-propan-1-one], on human PDHK2 (12-407), the pKd is 8.19. Also, the pIC50 in test [1] is 7.60; on PDHK2 it was 7.04.

Consider `C[C@@](O)(C(=O)N1CCC(C2(c3nnc(-c4ccccc4)[nH]3)CC2)CC1)C(F)(F)F` [Compound A1, (R)-3,3,3-Trifluoro-2-hydroxy-2-methyl-1-{4-[1-(5-phenyl-1H-[1,2,4]triazol-3-yl)-cyclopropyl]-piperidin-1-yl}-propan-1-one], for which the pKd on human PDHK2 (12-407) was 6.96. The pIC50 in test [1] was 5.52; at PDHK2, 6.23.

With `COc1ccc(-c2nnc(C3([C@H]4CCN(C(=O)[C@@](C)(O)C(F)(F)F)C[C@H]4C)CC3)o2)cn1` [Compound A43, (R)-3,3,3-Trifluoro-2-hydroxy-1-((3S,4S)-4-{1-[5-(6-methoxy-pyridin-3-yl)-[1,3,4]oxadiazol-2-yl]-cyclopropyl}-3-methyl-piperidin-1-yl)-2-methyl-propan-1-one], the pKd at human PDHK2 (12-407) was 8.42. The pIC50 was 7.80 in test [1] and 7.00 on PDHK2.

For the compound `C[C@@H]1CN(C(=O)[C@@](C)(O)C(F)(F)F)CC[C@@H]1C1(c2nnc(-c3ccc(Cl)cc3)[nH]2)CC1` [Compound A34, (R)-1-((3S,4S)-4-{1-[5-(4-Chloro-phenyl)-4H-[1,2,4]triazol-3-yl]-cyclopropyl}-3-methyl-piperidin-1-yl)-3,3,3-trifluoro-2-hydroxy-2-methyl-propan-1-one], on human PDHK2 (12-407), the pKd was 8.55. Further, the values for the pIC50 (in test [1]; on PDHK2) were 7.72 and 6.74, respectively.

On human PDHK2 (12-407), `COc1ccc(-c2nnc(C3([C@H]4CCN(C(=O)[C@@](C)(O)C(F)(F)F)C[C@H]4C)CC3)[nH]2)cc1` [Compound A28, (R)-3,3,3-Trifluoro-2-hydroxy-1-((3S,4S)-4-{1-[5-(4-methoxy-phenyl)-4H-[1,2,4]triazol-3-yl]-cyclopropyl}-3-methyl-piperidin-1-yl)-2-methyl-propan-1-one] gave a pKd of 8.60. The pIC50 in test [1] is 7.92; at PDHK2, 7.06.

Compound `Cc1ccc(-c2nnc(C3([C@H]4CCN(C(=O)[C@@](C)(O)C(F)(F)F)C[C@H]4C)CC3)o2)cc1` [Compound A25, (R)-3,3,3-Trifluoro-2-hydroxy-2-methyl-1-{(3S,4S)-3-methyl-4-[1-(5-p-tolyl-[1,3,4]oxadiazol-2-yl)-cyclopropyl]-piperidin-1-yl}-propan-1-one] had a pKd at human PDHK2 (12-407) of 8.39. The results for the pIC50 (in test [1]; at PDHK2) were 7.52 and 7.00, respectively.

Take `CC(C)(c1nnc(-c2ccccc2)[nH]1)C1CCN(C(=O)[C@@](C)(O)C(F)(F)F)CC1` [Compound A3, (R)-3,3,3-Trifluoro-2-hydroxy-2-methyl-1-{4-[1-methyl-1-(5-phenyl-4H-[1,2,4]triazol-3-yl)-ethyl]-piperidin-1-yl}-propan-1-one]: at human PDHK2 (12-407), the pKd is 7.01. Further, the values for the negative-log IC50 (pIC50) (in test [1]; on PDHK2) were 5.48 and 6.49, respectively.

In turn, `Cc1ccc(-c2nnc(C3([C@H]4CCN(C(=O)[C@@](C)(O)C(F)(F)F)C[C@H]4C)CC3)[nH]2)cc1` [Compound A22, (R)-3,3,3-Trifluoro-2-hydroxy-2-methyl-1-{(3S,4S)-3-methyl-4-[1-(5-p-tolyl-4H-[1,2,4]triazol-3-yl)-cyclopropyl]-piperidin-1-yl}-propan-1-one] gave a pKd on human PDHK2 (12-407) of 8.59. Moreover, the pIC50 was 7.80 in test [1] and 7.05 on PDHK2.

`C[C@@H]1CN(C(=O)[C@@](C)(O)C(F)(F)F)CC[C@@H]1C1(c2nnc(-c3ccccc3)o2)CC1` (stereo in doubt) [Compound A16, (R)-3,3,3-Trifluoro-2-hydroxy-2-methyl-1-{(R)-3-methyl-4-[1-(5-phenyl-[1,3,4]oxadiazol-2-yl)-cyclopropyl]-piperidin-1-yl}-propan-1-one] had a pKd at human PDHK2 (12-407) of 8.31. Moreover, the pIC50 in test [1] is 7.46; at PDHK2 it was 6.82.

For `CC(C)(c1nnc(-c2ccccc2)o1)C1CCN(C(=O)[C@@](C)(O)C(F)(F)F)CC1` [Compound A9, (R)-3,3,3-Trifluoro-2-hydroxy-2-methyl-1-{4-[1-methyl-1-(5-phenyl-[1,3,4]oxadiazol-2-yl)-ethyl]-piperidin-1-yl}-propan-1-one], the pKd at human PDHK2 (12-407) was 7.30. Also, the pIC50 was 6.19 in test [1] and 6.14 at PDHK2.

In turn, `Cc1nnc(C2(C3CCN(C(=O)[C@@](C)(O)C(F)(F)F)CC3)CC2)o1` [Compound A7, (R)-3,3,3-Trifluoro-2-hydroxy-2-methyl-1-{4-[1-(5-methyl-[1,3,4]oxadiazol-2-yl)-cyclopropyl]-piperidin-1-yl}-propan-1-one] gave a pKd on human PDHK2 (12-407) of 6.07. The pIC50 in test [1] was less than 4.52; at PDHK2, 5.46.

Consider `CC1CN(C(=O)[C@@](C)(O)C(F)(F)F)CCC1C1(c2nnc(-c3ccccc3)[nH]2)CC1` (stereo partly drawn) [Compound A11, (R)-3,3,3-Trifluoro-2-hydroxy-2-methyl-1-{3-methyl-4-[1-(5-phenyl-1H-[1,2,4]triazol-3-yl)-cyclopropyl]-piperidin-1-yl}-propan-1-one], for which the pKd at human PDHK2 (12-407) is 8.08. For the same compound, the pIC50 in test [1] is 6.92; on PDHK2 it was 6.43.
